Experimental data from patent publication US11951094B2, “TLR2 modulator compounds, pharmaceutical compositions and uses thereof” (Axial Therapeutics, Inc., priority 2020, dated 2024).
Structures can show the parent of a compound that is named as a salt.

Biological target: TLR2 (Homo sapiens, UniProt O60603)
Experiment: TLR2 agonist screening assay, HEK-Blue TLR2 reporter cell line (NF-kB-driven SEAP, absorbance at 600 nm)
Type: cell-based
Parameters: host or cells: HEK-293 (HEK-Blue TLR2 reporter cell line)
Settings: HEK-Blue TLR2 reporter cells, agonist mode
Method in brief: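 EC50 values come from 600 nm absorbance of SEAP-converted substrate after overnight agonist exposure. The reporter line was HEK-293 engineered with TLR2 and an NF-kB-SEAP construct, seeded at about 40,000 cells per well 16-24 h beforehand. Compounds were added at 1% final DMSO.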

TLR2, sequence (O60603 21-784): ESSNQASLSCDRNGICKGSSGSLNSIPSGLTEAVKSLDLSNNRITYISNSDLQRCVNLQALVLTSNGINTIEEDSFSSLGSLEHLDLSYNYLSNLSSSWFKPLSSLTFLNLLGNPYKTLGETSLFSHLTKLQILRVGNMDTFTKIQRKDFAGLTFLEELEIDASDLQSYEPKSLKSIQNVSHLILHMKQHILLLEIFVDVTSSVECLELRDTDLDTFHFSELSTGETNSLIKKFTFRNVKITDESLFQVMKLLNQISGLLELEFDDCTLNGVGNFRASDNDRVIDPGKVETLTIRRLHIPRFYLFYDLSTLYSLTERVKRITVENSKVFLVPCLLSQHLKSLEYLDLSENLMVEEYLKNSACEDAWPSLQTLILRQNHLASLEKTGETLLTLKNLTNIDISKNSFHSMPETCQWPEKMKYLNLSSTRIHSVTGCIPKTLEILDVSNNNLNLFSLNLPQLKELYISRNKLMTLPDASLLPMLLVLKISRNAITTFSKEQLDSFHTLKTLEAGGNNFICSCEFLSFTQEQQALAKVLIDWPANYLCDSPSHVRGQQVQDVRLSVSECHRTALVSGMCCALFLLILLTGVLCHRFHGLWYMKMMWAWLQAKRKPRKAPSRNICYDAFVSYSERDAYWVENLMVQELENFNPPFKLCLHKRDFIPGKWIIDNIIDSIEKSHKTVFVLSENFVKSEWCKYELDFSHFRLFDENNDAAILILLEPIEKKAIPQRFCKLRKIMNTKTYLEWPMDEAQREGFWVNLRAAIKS

Row | EC50 (average of all runs (Table 4)) [nM] | EC50 (average of all runs (Table 3)) [nM] | SMILES
1 | 51 to 350 |  | CCCCCCCO[C@@H]1CN(C(=O)c2ccc(C(=O)N3C[C@@H](C(=O)N[C@H]4C[C@@H]4c4ccccc4)[C@H](C(=O)N[C@H]4C[C@@H]4c4ccccc4)C3)cc2)C[C@H]1C(=O)NCCCCCC (single isomer, unassigned) [Compound 114, (3S,4S)-1-(4-((3S*,4R*)-3-(heptyloxy)-4-(hexylcarbamoyl)pyrrolidine-1-carbonyl)benzoyl)-N3,N4-bis((1S,2R)-2-phenylcyclopropyl)pyrrolidine-3,4-dicarboxamide]
2 |  | > 1000 | CCCCCCCC(=O)N1CCN(C(=O)c2ccc(C(=O)N3C[C@@H](C(=O)N[C@H]4C[C@@H]4c4ccccc4)[C@H](C(=O)N[C@H]4C[C@@H]4c4ccccc4)C3)cc2)CC1C(=O)N[C@H]1C[C@@H]1c1ccccc1 (stereo partly drawn) [Compound 040]
3 | 0.1 to 50 |  | CCCCCCCC[C@@H]1CN(C(=O)c2ccc(C(=O)N3C[C@@H](C(=O)N[C@H]4C[C@@H]4c4ccccc4)[C@H](C(=O)N[C@H]4C[C@@H]4c4ccccc4)C3)cc2)C[C@H]1C(=O)NCCCCCC (single isomer, unassigned) [Compound 111]
4 |  | 51 to 350 | CCCCCCCC(=O)N1CCN(C(=O)c2ccc(C(=O)N3C[C@@H](C(=O)N[C@H]4C[C@@H]4c4ccccc4)[C@H](C(=O)N[C@H]4C[C@@H]4c4ccccc4)C3)cc2)CC1C(=O)NCCCC (mixture of isomers) [Compound 046, (3S,4S)-1-(4-(3-(butylcarbamoyl)-4-octanoylpiperazine-1-carbonyl)benzoyl)-N3,N4-bis((1S,2R)-2-phenylcyclopropyl)pyrrolidine-3,4-dicarboxamide]
5 |  | > 1000 | CCCCCCNC(=O)[C@@H](CNC(=O)c1ccc(C(=O)N2C[C@@H](C(=O)N[C@H]3C[C@@H]3c3ccccc3)[C@H](C(=O)N[C@H]3C[C@@H]3c3ccccc3)C2)cc1)NC(=O)CCCCCC [Compound 070, (3S,4S)-1-(4-(((R)-2-heptanamido-3-(hexylamino)-3-oxopropyl)carbamoyl)benzoyl)-N3,N4-bis((1S,2R)-2-phenylcyclopropyl)pyrrolidine-3,4-dicarboxamide]
6 |  | 51 to 350 | CCCCCCCCN1CCN(C(=O)c2ccc(C(=O)N3C[C@@H](C(=O)N[C@H]4C[C@@H]4c4ccccc4)[C@H](C(=O)N[C@H]4C[C@@H]4c4ccccc4)C3)cc2)C[C@@H]1C(=O)NCCCCCC [Compound 037, (3S,4S)-1-(4-((R)-3-(hexylcarbamoyl)-4-octylpiperazine-1-carbonyl)benzoyl)-N3,N4-bis((1S,2R)-2-phenylcyclopropyl)pyrrolidine-3,4-dicarboxamide formate]
7 |  | > 1000 | CCCCCCCCOC1CN(C(=O)c2ccc(C(=O)N3C[C@@H](C(=O)N[C@H]4C[C@@H]4c4ccccc4)[C@H](C(=O)N[C@H]4C[C@@H]4c4ccccc4)C3)cc2)C[C@H]1OCCCCCCCC (stereo partly drawn) [Compound 020]
8 | 51 to 350 |  | CCCCCCNC(=O)[C@H](CN[C@H](c1ccc(C(=O)N2C[C@@H](C(=O)N[C@H]3C[C@@H]3c3ccccc3)[C@H](C(=O)N[C@H]3C[C@@H]3c3ccccc3)C2)cc1)C(F)(F)F)NC(=O)CCCCCC (single isomer, unassigned) [Compound 149]
9 | > 1000 |  | CO[C@H]1CN(C(=O)c2ccc(C(=O)N3C[C@@H](C(=O)N[C@H]4C[C@@H]4c4ccccc4)[C@H](C(=O)N[C@H]4C[C@@H]4c4ccccc4)C3)cc2)C[C@@H]1NC(=O)NCCc1ccc(F)cc1 [Compound 182, (3S,4S)-1-(4-((3S,4S)-3-(3-(4-fluorophenethyl)ureido)-4-methoxypyrrolidine-1-carbonyl)benzoyl)-N3,N4-bis((1S,2R)-2-phenylcyclopropyl)pyrrolidine-3,4-dicarboxamide]
10 | > 1000 |  | CCCCCCCC(=O)N1CCN(S(=O)(=O)c2ccc(C(=O)N3C[C@@H](C(=O)N[C@H]4C[C@@H]4c4ccccc4)[C@H](C(=O)N[C@H]4C[C@@H]4c4ccccc4)C3)cc2)C[C@@H]1C(=O)NCCCCCC [Compound 161, (3S,4S)-1-(4-(((R)-3-(hexylcarbamoyl)-4-octanoylpiperazin-1-yl)sulfonyl)benzoyl)-N3,N4-bis((1S,2R)-2-phenylcyclopropyl)pyrrolidine-3,4-dicarboxamide]
11 |  | 0.1 to 50 | CCCCCCNC(=O)C1CN(C(=O)c2ccc(C(=O)N3C[C@@H](C(=O)N[C@H]4C[C@@H]4c4ccccc4)[C@H](C(=O)N[C@H]4C[C@@H]4c4ccccc4)C3)cc2)CCN1C(=O)CCCCCC (mixture of isomers) [Compound 056, (3S,4S)-1-(4-(4-heptanoyl-3-(hexylcarbamoyl)piperazine-1-carbonyl)benzoyl)-N3,N4-bis((1S,2R)-2-phenylcyclopropyl)pyrrolidine-3,4-dicarboxamide]
12 |  | > 1000 | CCCCCCNC(=O)[C@@H]1CN(C(=O)c2ccc(C(=O)N3C[C@@H](C(=O)N[C@H]4C[C@@H]4c4ccccc4)[C@H](C(=O)N[C@H]4C[C@@H]4c4ccccc4)C3)cc2)C[C@H]1NC(=O)CCCCCC [Compound 039]
13 |  | > 1000 | CCCCCCCC(=O)N1CCN(C(=O)c2ccc(C(=O)N3C[C@@H](C(=O)N[C@H]4C[C@@H]4c4ccccc4)[C@H](C(=O)N[C@H]4C[C@@H]4c4ccccc4)C3)cc2)C[C@H]1C(=O)NCCCCCC [Compound 030]
14 | > 1000 |  | CCCCCCCCCC(=O)N[C@@H](CNc1nc2cc(C(=O)N3C[C@@H](C(=O)N[C@H]4C[C@@H]4c4ccccc4)[C@H](C(=O)N[C@H]4C[C@@H]4c4ccccc4)C3)ccc2o1)C(=O)NCCCCCC [Compound 246, (3S,4S)-1-(2-(((S)-2-decanamido-3-(hexylamino)-3-oxopropyl)amino)benzo[d]oxazole-5-carbonyl)-N3,N4-bis((1S,2R)-2-phenylcyclopropyl)pyrrolidine-3,4-dicarboxamide]
15 | 351 to 1000 |  | CCCCCCCC(=O)N1CCCN(S(=O)(=O)c2cccc(C(=O)N3C[C@@H](C(=O)N[C@H]4C[C@@H]4c4ccccc4)[C@H](C(=O)N[C@H]4C[C@@H]4c4ccccc4)C3)c2)C[C@@H]1C(=O)NCCCCCC (single isomer, unassigned) [Compound 201]
16 | > 1000 |  | CCCCCNC(=O)[C@@H]1CN(C(=O)c2ccc(C(=O)N3C[C@@H](C(=O)N[C@H]4C[C@@H]4c4ccccc4)[C@H](C(=O)N[C@H]4C[C@@H]4c4ccccc4)C3)cc2)CCN1C(C)=O [Compound 264, (3S,4S)-1-(4-((S)-4-acetyl-3-(pentylcarbamoyl)piperazine-1-carbonyl)benzoyl)-N3,N4-bis((1S,2R)-2-phenylcyclopropyl) pyrrolidine-3,4-dicarboxamide]
17 | 351 to 1000 |  | O=C(N[C@H]1C[C@@H]1c1ccccc1)[C@@H]1CN(C(=O)C23CCC(C(=O)N4C[C@@H](C(=O)N[C@H]5C[C@@H]5c5ccccc5)[C@H](C(=O)N[C@H]5C[C@@H]5c5ccccc5)C4)(CC2)C3)C[C@H]1C(=O)N[C@H]1C[C@@H]1c1ccccc1 [Compound 081, (3S,3'S,4S,4'S)-1,1′-(bicyclo [2.2.1]heptane-1,4-dicarbonyl) bis (N3,N4-bis((1S,2R)-2-phenylcyclopropyl)pyrrolidine-3,4-dicarboxamide)]
18 | > 1000 |  | CCCCCCCCCCCCCNC(=O)N[C@H]1CN(c2nc3ccc(C(=O)N4C[C@@H](C(=O)N[C@H]5C[C@@H]5c5ccccc5)[C@H](C(=O)N[C@H]5C[C@@H]5c5ccccc5)C4)cc3o2)C[C@@H]1OC [Compound 247, (3S,4S)-1-(2-((3S,4S)-3-methoxy-4-(3-tridecylureido)pyrrolidin-1-yl)benzo[d]oxazole-6-carbonyl)-N3,N4-bis((1S,2R)-2-phenylcyclopropyl)pyrrolidine-3,4-dicarboxamide]
19 | 351 to 1000 |  | CCCCCCCCCC(=O)N[C@@H](CNCc1ccc(C(=O)N2C[C@@H](C(=O)N[C@H]3C[C@@H]3c3ccccc3)[C@H](C(=O)N[C@H]3C[C@@H]3c3ccccc3)C2)cc1)C(=O)NCCCCCC [Compound 266, (3S,4S)-1-(4-((((S)-2-decanamido-3-(hexylamino)-3-oxopropyl)amino)methyl)benzoyl)-N3,N4-bis((1S,2R)-2-phenylcyclopropyl) pyrrolidine-3,4-dicarboxamide]
20 |  | 351 to 1000 | CCCCCCNC(=O)[C@@H]1C[C@H](C(=O)NCCCCCC)CN(C(=O)c2ccc(C(=O)N3C[C@@H](C(=O)N[C@H]4C[C@@H]4c4ccccc4)[C@H](C(=O)N[C@H]4C[C@@H]4c4ccccc4)C3)cc2)C1 (relative stereo) [Compound 038, (3R*,5S*)-1-(4-((3S,4S)-3,4-bis(((1S,2R)-2-phenylcyclopropyl)carbamoyl)pyrrolidine-1-carbonyl)benzoyl)-N3,N5-dihexylpiperidine-3,5-dicarboxamide]
21 | > 1000 |  | CCCCCCCCCCCCCCNC(=O)C1COC(=O)N(Cc2ccc(C(=O)N3C[C@@H](C(=O)N[C@H]4C[C@@H]4c4ccccc4)[C@H](C(=O)N[C@H]4C[C@@H]4c4ccccc4)C3)cc2)C1 (stereo partly drawn) [Compound 179]
22 | 51 to 350 |  | CCCCCCCCCCCCCCNC(=O)[C@H]1CN(C(c2ccc(C(=O)N3C[C@@H](C(=O)N[C@H]4C[C@@H]4c4ccccc4)[C@H](C(=O)N[C@H]4C[C@@H]4c4ccccc4)C3)cc2)C(F)(F)F)CCN1C (stereo partly drawn) [Compound 132, (3S,4S)—N3,N4-bis((1S,2R)-2-phenylcyclopropyl)-1-(4-(2,2,2-trifluoro-1-((R)-4-methyl-3-(tetradecylcarbamoyl)piperazin-1-yl)ethyl)benzoyl)pyrrolidine-3,4-dicarboxamide]
23 | 351 to 1000 |  | CCCCCCCC(=O)N1CCN(Cc2ccc(C(=O)N3C[C@@H](C(=O)N[C@H]4C[C@@H]4c4ccccc4)[C@H](C(=O)N[C@H]4C[C@@H]4c4ccccc4)C3)cc2)C[C@@H]1C(=O)NCCCCCC [Compound 121, (3S,4S)-1-(4-(((R)-3-(hexylcarbamoyl)-4-octanoylpiperazin-1-yl)methyl)benzoyl)-N3,N4-bis((1S,2R)-2-phenylcyclopropyl)pyrrolidine-3,4-dicarboxamide]
24 | > 1000 |  | CCCCCCCCCCCCCCC(=O)N1CCC[C@H](NC(=O)c2ccc(C(=O)N3C[C@@H](C(=O)N[C@H]4C[C@@H]4c4ccccc4)[C@H](C(=O)N[C@H]4C[C@@H]4c4ccccc4)C3)cc2)C1 [Compound 125, (3S,4S)-1-(4-(((S)-1-pentadecanoylpiperidin-3-yl)carbamoyl)benzoyl)-N3,N4-bis((1S,2R)-2-phenylcyclopropyl)pyrrolidine-3,4-dicarboxamide]
